Source: the supplement of paper PMC11061612

How the values were obtained:
[1] = test system: OACM5-1 (Esophageal Adenocarcinoma); experiment: Bliss excess, mean over the matrix (fraction); higher = more synergy
How it was run: (§1)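 Bliss excess equals the observed combination effect minus the expected value EA + EB − EA·EB, where EA and EB are the effects of each agent alone. Combination Emax is the second-highest inhibition within the matrix. Inhibition was scaled from CellTiter-Glo 2.0 luminescence, with 0 set by vehicle wells and 1 by blank wells, after 72 hours of two-drug dosing of cells plated in 1536-well plates.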

EW-1 (Ewing's Sarcoma) = experiment: as above
How it was run: as §1

[2] = test system: CADO-ES1 (Ewing's Sarcoma); experiment: as above
How it was run: as §1

[3] = test system: SK-LU-1 (Lung Adenocarcinoma); experiment: as above
How it was run: as §1

[4] = test system: NCI-H2122 (Lung Adenocarcinoma); experiment: as above
How it was run: as §1

[5] = test system: NCI-H650 (Lung Adenocarcinoma); experiment: as above
How it was run: as §1

[6] = test system: HCC1937 (Breast Carcinoma); experiment: as above
How it was run: as §1

[7] = test system: NCI-H1092 (Small Cell Lung Carcinoma); experiment: as above
How it was run: as §1

[8] = test system: LC-1-sq (Squamous Cell Lung Carcinoma); experiment: as above
How it was run: as §1

[9] = test system: HCC2998 (Colorectal Carcinoma); experiment: as above
How it was run: as §1

[10] = test system: ALL-SIL (T-Lymphoblastic Leukemia); experiment: as above
How it was run: as §1

[11] = test system: MOG-G-UVW (Low Grade Glioma); experiment: combination Emax (second highest fraction inhibited in the dose matrix, 72 h); higher = more inhibition; extreme values may be limits of the assay
How it was run: as §1

[12] = test system: A4-Fuk (B-Lymphoblastic Leukemia); experiment: as above
How it was run: as §1

[13] = test system: SW872 (Other Solid Carcinomas); experiment: as above
How it was run: as §1

SK-N-AS (Neuroblastoma) = experiment: as above
How it was run: as §1

[14] = test system: MDA-MB-453 (Breast Carcinoma); experiment: as above
How it was run: as §1

COLO-679 (Melanoma) = experiment: as above
How it was run: as §1

[15] = test system: SW982 (Other Solid Carcinomas); experiment: as above
How it was run: as §1

[16] = test system: HAL-01 (B-Lymphoblastic Leukemia); experiment: as above
How it was run: as §1

[17] = test system: COLO-668 (Small Cell Lung Carcinoma); experiment: as above
How it was run: as §1

Structure (SMILES): CN(CCO)CC[C@H](CSc1ccccc1)Nc1ccc(S(=O)(=O)NC(=O)c2ccc(N3CCC([C@@H](O)c4ccccc4-c4ccc(Cl)cc4)CC3)cc2)cc1S(=O)(=O)C(F)(F)F [AZD4320] + CCN(CCO)CCCOc1ccc2c(Nc3cc(CC(=O)Nc4cccc(F)c4)[nH]n3)ncnc2c1 [AZD2811] (first compound max 1 µM, 7x7, partner max 1 µM)
- Bliss excess [1]: 0.0473
- Bliss excess (EW-1 (Ewing's Sarcoma)): 0.146
- Bliss excess [2]: -0.0732
- Bliss excess [3]: -0.0232
- Bliss excess [4]: 0.0001
- Bliss excess [5]: -0.0457
- Bliss excess [6]: -0.0513
- Bliss excess [7]: 0.0193
- Bliss excess [8]: 0.0294
- Bliss excess [9]: 0.103
- Bliss excess [10]: -0.0124
- combination Emax [11]: 0.509
- combination Emax [12]: 0.417
- combination Emax [13]: 0.142
- combination Emax (SK-N-AS (Neuroblastoma)): 0.391
- combination Emax [14]: 0.324
- combination Emax (COLO-679 (Melanoma)): 0.275
- combination Emax [15]: 0.814
- combination Emax [16]: 0.835
- combination Emax [17]: 0.915

Structure (SMILES): CN(CCO)CC[C@H](CSc1ccccc1)Nc1ccc(S(=O)(=O)NC(=O)c2ccc(N3CCC([C@@H](O)c4ccccc4-c4ccc(Cl)cc4)CC3)cc2)cc1S(=O)(=O)C(F)(F)F [AZD4320] + C[C@@H]1COCCN1C2=NC(=NC(=C2)C3(CC3)[S@](=N)(=O)C)C4=C5C=CNC5=NC=C4 [AZD6738] (first compound max 1 µM, 7x7, partner max 10 µM)
- Bliss excess [1]: 0.0144
- Bliss excess (EW-1 (Ewing's Sarcoma)): 0.0574
- Bliss excess [2]: -0.0031
- Bliss excess [3]: -0.0884
- Bliss excess [4]: -0.0269
- Bliss excess [5]: -0.0234
- Bliss excess [6]: -0.0241
- Bliss excess [7]: -0.0167
- Bliss excess [8]: 0.0261
- Bliss excess [9]: -0.0283
- Bliss excess [10]: 0.0038
- combination Emax [11]: 0.794
- combination Emax [12]: 0.715
- combination Emax [13]: 0.624
- combination Emax (SK-N-AS (Neuroblastoma)): 0.949
- combination Emax [14]: 0.803
- combination Emax (COLO-679 (Melanoma)): 0.771
- combination Emax [15]: 0.886
- combination Emax [16]: 1
- combination Emax [17]: 0.983

Structure (SMILES): CN(CCO)CC[C@H](CSc1ccccc1)Nc1ccc(S(=O)(=O)NC(=O)c2ccc(N3CCC([C@@H](O)c4ccccc4-c4ccc(Cl)cc4)CC3)cc2)cc1S(=O)(=O)C(F)(F)F [AZD4320] + Cc1cc2ncnn2cc1Nc1ncc2c(n1)n(C1CCOCC1)c(=O)n2C [AZD7648] (first compound max 1 µM, 7x7, partner max 10 µM)
- Bliss excess [1]: -0.0545
- Bliss excess (EW-1 (Ewing's Sarcoma)): 0.0033
- Bliss excess [2]: -0.0361
- Bliss excess [3]: 0.0207
- Bliss excess [4]: -0.0074
- Bliss excess [5]: -0.021
- Bliss excess [6]: -0.0352
- Bliss excess [7]: 0.005
- Bliss excess [8]: -0.0093
- Bliss excess [9]: -0.0035
- Bliss excess [10]: -0.0083
- combination Emax [11]: 0.191
- combination Emax [12]: 0.619
- combination Emax [13]: 0.113
- combination Emax (SK-N-AS (Neuroblastoma)): 0.182
- combination Emax [14]: 0.285
- combination Emax (COLO-679 (Melanoma)): 0.142
- combination Emax [15]: 0.371
- combination Emax [16]: 0.882
- combination Emax [17]: 0.867

Structure (SMILES): Cc1c2c(nn1C)CSCc1cc(n(C)n1)CSc1cc(c3ccccc3c1)OCCCc1c(C(=O)O)n(C)c3c-2c(Cl)ccc13 [AZD5991] + Cn1cnc2c(F)c(Nc3ccc(Br)cc3Cl)c(C(=O)NOCCO)cc21 [Selumetinib] (first compound max 1 µM, 7x7, partner max 3 µM)
- Bliss excess [1]: 0.0491
- Bliss excess (EW-1 (Ewing's Sarcoma)): -0.0044
- Bliss excess [2]: -0.0208
- Bliss excess [3]: -0.0225
- Bliss excess [4]: 0.028
- Bliss excess [5]: 0.0222
- Bliss excess [6]: 0.0328
- Bliss excess [7]: -0.03
- Bliss excess [8]: 0.0393
- Bliss excess [9]: 0.0417
- Bliss excess [10]: 0.0068
- combination Emax [11]: 0.302
- combination Emax [12]: 1
- combination Emax [13]: 0.288
- combination Emax (SK-N-AS (Neuroblastoma)): 0.876
- combination Emax [14]: 0.289
- combination Emax (COLO-679 (Melanoma)): 0.832
- combination Emax [15]: 0.377
- combination Emax [16]: 0.624
- combination Emax [17]: 0.666

Structure (SMILES): Cc1cc2ncnn2cc1Nc1ncc2c(n1)n(C1CCOCC1)c(=O)n2C [AZD7648] + O=C(c1cc(Cc2n[nH]c(=O)c3ccccc23)ccc1F)N1CCN(C(=O)C2CC2)CC1 [Olaparib] (first compound max 10 µM, 7x7, partner max 10 µM)
- Bliss excess [1]: -0.0505
- Bliss excess (EW-1 (Ewing's Sarcoma)): -0.0021
- Bliss excess [2]: 0.0086
- Bliss excess [3]: -0.066
- Bliss excess [4]: -0.0124
- Bliss excess [5]: -0.0247
- Bliss excess [6]: -0.0498
- Bliss excess [7]: -0.025
- Bliss excess [8]: -0.042
- Bliss excess [9]: -0.023
- Bliss excess [10]: -0.0083
- combination Emax [11]: 0.316
- combination Emax [12]: 0.428
- combination Emax [13]: 0.11
- combination Emax (SK-N-AS (Neuroblastoma)): 0.102
- combination Emax [14]: 0.281
- combination Emax (COLO-679 (Melanoma)): 0.128
- combination Emax [15]: 0.503
- combination Emax [16]: 0.472
- combination Emax [17]: 0.144

Structure (SMILES): Cc1nc(Nc2ncc(C(=O)Nc3c(C)cccc3Cl)s2)cc(N2CCN(CCO)CC2)n1 [Dasatinib] + CC(=O)Nc1cccc(-n2c(=O)n(C3CC3)c(=O)c3c(Nc4ccc(I)cc4F)n(C)c(=O)c(C)c32)c1 [Trametinib] (first compound max 2 µM, 7x7, partner max 1 µM)
- Bliss excess [1]: -0.0912
- Bliss excess (EW-1 (Ewing's Sarcoma)): -0.0586
- Bliss excess [2]: -0.0435
- Bliss excess [3]: -0.0889
- Bliss excess [4]: 0.0119
- Bliss excess [5]: 0.121
- Bliss excess [6]: -0.0262
- Bliss excess [7]: -0.0494
- Bliss excess [8]: -0.0577
- Bliss excess [9]: 0.111
- Bliss excess [10]: 0.0316
- combination Emax [11]: 0.677
- combination Emax [12]: 0.848
- combination Emax [13]: 0.566
- combination Emax (SK-N-AS (Neuroblastoma)): 0.558
- combination Emax [14]: 0.224
- combination Emax (COLO-679 (Melanoma)): 0.757
- combination Emax [15]: 0.936
- combination Emax [16]: 0.526
- combination Emax [17]: 0.458

Structure (SMILES): COc1cc2ncnc(Nc3ccc(F)c(Cl)c3)c2cc1OCCCN1CCOCC1 [Gefitinib] + CC(C)n1c(=O)n(C)c2cnc3cc(F)c(-c4ccc(OCCCN5CCCCC5)nc4)cc3c21 [AZD1390] (first compound max 10 µM, 7x7, partner max 0.3 µM)
- Bliss excess [1]: -0.112
- Bliss excess (EW-1 (Ewing's Sarcoma)): -0.064
- Bliss excess [2]: -0.0634
- Bliss excess [3]: -0.0818
- Bliss excess [4]: -0.0508
- Bliss excess [5]: -0.0791
- Bliss excess [6]: -0.108
- Bliss excess [7]: -0.0528
- Bliss excess [8]: -0.0754
- Bliss excess [9]: -0.0541
- Bliss excess [10]: -0.0699
- combination Emax [11]: 0.115
- combination Emax [12]: 0.307
- combination Emax [13]: 0.131
- combination Emax (SK-N-AS (Neuroblastoma)): 0.0247
- combination Emax [14]: 0.204
- combination Emax (COLO-679 (Melanoma)): 0.0902
- combination Emax [15]: 0.316
- combination Emax [16]: 0.488
- combination Emax [17]: 0.176

Structure (SMILES): C[C@@H](c1ccc2nccn2c1)n1nnc2ncc(-c3cnn(C)c3)nc21 [Savolitinib] + CC1(C)CCC(CN2CCN(c3ccc(C(=O)NS(=O)(=O)c4ccc(NCC5CCOCC5)c([N+](=O)[O-])c4)c(Oc4cnc5[nH]ccc5c4)c3)CC2)=C(c2ccc(Cl)cc2)C1 [Venetoclax] (first compound max 1 µM, 7x7, partner max 1 µM)
- Bliss excess [1]: -0.0637
- Bliss excess (EW-1 (Ewing's Sarcoma)): -0.0386
- Bliss excess [2]: -0.0549
- Bliss excess [3]: -0.0258
- Bliss excess [4]: -0.0559
- Bliss excess [5]: -0.0822
- Bliss excess [6]: -0.0884
- Bliss excess [7]: -0.0916
- Bliss excess [8]: -0.0408
- Bliss excess [9]: -0.0866
- Bliss excess [10]: -0.0072
- combination Emax [11]: 0.392
- combination Emax [12]: 0.199
- combination Emax [13]: 0.136
- combination Emax (SK-N-AS (Neuroblastoma)): 0.12
- combination Emax [14]: 0.15
- combination Emax (COLO-679 (Melanoma)): 0.109
- combination Emax [15]: 0.128
- combination Emax [16]: 0.703
- combination Emax [17]: 0.295

Structure (SMILES): C[C@@H](c1ccc2nccn2c1)n1nnc2ncc(-c3cnn(C)c3)nc21 [Savolitinib] + Cc1c2c(nn1C)CSCc1cc(n(C)n1)CSc1cc(c3ccccc3c1)OCCCc1c(C(=O)O)n(C)c3c-2c(Cl)ccc13 [AZD5991] (first compound max 1 µM, 7x7, partner max 1 µM)
- Bliss excess [1]: -0.0598
- Bliss excess (EW-1 (Ewing's Sarcoma)): -0.0001
- Bliss excess [2]: 0.0151
- Bliss excess [3]: -0.0291
- Bliss excess [4]: -0.0513
- Bliss excess [5]: -0.045
- Bliss excess [6]: -0.0386
- Bliss excess [7]: -0.0875
- Bliss excess [8]: -0.0163
- Bliss excess [9]: -0.0463
- Bliss excess [10]: -0.0355
- combination Emax [11]: 0.343
- combination Emax [12]: 1
- combination Emax [13]: 0.201
- combination Emax (SK-N-AS (Neuroblastoma)): 0.314
- combination Emax [14]: 0.261
- combination Emax (COLO-679 (Melanoma)): 0.163
- combination Emax [15]: 0.119
- combination Emax [16]: 0.291
- combination Emax [17]: 0.257
